Source: PMC10725471, “Chemical modulation of cytosolic BAX homodimer potentiates BAX activation and apoptosis” (Nature Communications, 2023)
pIC50: −log10 of the molar value. Counter-ions that a name gives are not always drawn.

Key:
[1] = biological target: FITC-BIM SAHB, hydrocarbon-stapled peptide corresponding to the BH3 domain of BIM; assay: fluorescence polarisation; direct binding: FITC-BIM SAHB (25 nM) with serial dilutions of full-length BAX; 10-minute time-point
[2] = biological target: cytosolic BAX (endogenous, human cell lines) (human (endogenous in human cell lines)) (UniProt Q07812); assay: SEC; cytosolic fraction (2.5 mg, lysis without detergent) on Superdex 200 10/300 GL in IBc buffer (10 mM Tris HCl, 1 mM EGTA, 200 mM sucrose, pH 7.5), 4 °C; fractions blotted for BAX; cell lines with BAX centered at 14–14.5 ml (CALU-6, HCT-116, Namalwa, BEAS-2B, IMR90 and other lines of the panel)
[3] = system: HCT116 BAX P168G cells (HCT116 BAX KO reconstituted with BAX P168G, cytosolic dimer); assay: Cell viability (CellTiter-Glo) assay; settings: up to highest concentration of 2 μM, 24 h
HCT116 BAX P168G cells = assay: Caspase 3/7 activation assay; type: cell-based, human
[4] = system: CALU-6 CRISPR/Cas9 BAX KO cells; assay: Caspase 3/7 activation assay; type: cell-based, human; settings: CALU-6 BAX KO, 8 hrs
[5] = system: HCT116 BAX WT cells (HCT116 BAX KO reconstituted with BAX WT, cytosolic dimer); assay: Cell viability (CellTiter-Glo) assay; type: cell-based; settings: Homo sapiens, HCT-116, 24 h
[6] = system: HCT116 BAX E75K cells (HCT116 BAX KO reconstituted with BAX E75K, cytosolic monomer); assay: Cell viability (CellTiter-Glo) assay; type: cell-based; settings: Homo sapiens, HCT-116, after 24 h
SUDHL-5 cells = assay: Cell viability (CellTiter-Glo) assay; type: cell-based; settings: Homo sapiens, SU-DHL-5; SUDHL-5, 72 hrs
BAX in CALU-6 cells = biological target: T1, BAX in CALU-6 cells (Homo sapiens, UniProt Q07812); assay: Active BAX immunoprecipitation with 6A7 antibody (BAX conformational change assay); type: cell-based; settings: 20 µM, 2 hrs
T1 construct: endogenous in cells; host or cells: CALU-6
T1 sequence (Q07812 whole entry): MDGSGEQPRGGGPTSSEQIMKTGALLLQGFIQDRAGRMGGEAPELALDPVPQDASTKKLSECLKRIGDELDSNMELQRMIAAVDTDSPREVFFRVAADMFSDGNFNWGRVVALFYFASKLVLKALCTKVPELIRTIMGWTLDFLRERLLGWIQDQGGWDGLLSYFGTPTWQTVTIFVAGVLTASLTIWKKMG
Experimental: Cells were harvested and lysed with a 1% CHAPS lysis buffer (150 mM NaCl, 10 mM HEPES, pH 7.4, 1% CHAPS) supplemented with Halt protease inhibitor cocktail (Thermofisher Cat. 1861279). Whole-cell lysates were subjected to immunoprecipitation followed by immunoblotting against total BAX. Briefly, 500–1000 μg total protein in 600 µl was collected and incubated with 12 µl (50% slurry) of pre-equilibrated protein G agarose beads (Santa Cruz Biotechnology) for 30 min at 4 °C on a rotator. The precleared samples were then incubated with 5 µl of 6A7 antibody (Santa Cruz Biotechnology Cat. 23959) overnight at 4 °C. The next day, 20 µl (50% slurry) of pre-equilibrated G agarose beads (Santa Cruz Biotechnology) were added to the samples and incubated for 2 h at 4 °C. The beads were pelleted, washed with the lysis buffer 3 times, and protein eluted by heating the beads at 90 °C for 15 minutes in 1X LDS/DTT loading buffer. The immunoprecipitates were subjected to electrophoresis on 4–12% NuPage gels (Life Technologies). For visualization of proteins using Odyssey Infrared Imaging System (LI-COR Biosciences), membranes were blocked in PBS containing 5% milk powder for 1 hour at room temperature. Primary antibodies were incubated overnight at 4 °C. After washing, membranes were incubated with an IRdye800-conjugated goat anti-rabbit IgG (1:10, 000) or IRDye800- conjugated goat anti-mouse IgG (1:20,000 dilution) secondary antibodies (LI-COR Biosciences). Antibodies were used to detect the following proteins on membrane: BAX (Cell Signaling Cat. 2772) and β-Actin (Sigma Cat. A1978) or β-tubulin (Cell Signaling Cat. 2146).

[7] = system: HCT116 BAX WT, HCT116 BAX P168G and HCT116 BAX E75K cells; assay: Caspase 3/7 activation assay; type: cell-based, human; settings: all HCT116 BAX cell lines, titration, 6 hrs
[8] = biological target: human BAX WT in HCT116 BAX KO cells (human) (UniProt Q07812); assay: SEC; cytosolic fraction of HCT116 BAX KO cells reconstituted with BAX WT, P168G or E75K, untreated; Superdex 200 10/300 GL in IBc buffer, 4 °C; fractions blotted for BAX

Chain of recombinant human full-length (aa1–192) wild-type BAX (Q07812 whole entry, the tested form may be a part): as the sequence (Q07812 whole entry) above

Molecule: recombinant human full-length (aa1–192) wild-type BAX (from UniProt Q07812 1-192) (natural protein)
- EC75 [1]: 125 nM

Molecule: cytosolic BAX (endogenous, human cell lines) (from UniProt Q07812 1-192) (natural protein)
- stoichiometry N [2]: 2

Molecule: CC1(C)CCC(c2ccc(Cl)cc2)=C(CN2CCN(c3ccc(C(=O)NS(=O)(=O)c4ccc(N[C@H](CCN5CCOCC5)CSc5ccccc5)c(S(=O)(=O)C(F)(F)F)c4)cc3)CC2)C1 [ABT-263, Navitoclax]
- cell viability (result in words) [3]: did not show decreased viability
- caspase-3/7 activity (result in words) (HCT116 BAX P168G cells; titration, 6 hrs): did not show caspase-3/7 activity
- caspase-3/7 activation (result in words) [4]: no caspase-3/7 activation was observed
- pIC50 [5]: 6.72
- pIC50 [6]: 7.35

Molecule: Cc1cccc(/C=C/c2nc3ccc(I)cc3c(=O)n2-c2ccc(C(=O)O)cc2)c1 [BDM19]
- caspase-3/7 activation (result in words) [4]: no caspase-3/7 activation was observed
- pIC50 (SUDHL-5 cells): 5.87

Molecule: COc1cccc2c1C(=O)c1c(O)c3c(c(O)c1C2=O)C[C@@](O)(C(=O)CO)C[C@@H]3O[C@H]1C[C@H](N)[C@H](O)[C@H](C)O1 [doxorubicin, Doxorubicin hydrochloride]
- caspase-3/7 activation (result in words) (HCT116 BAX P168G cells; various concentrations, 24 hrs): not responsive

Molecule: O=C(O)c1ccc(-n2c(/C=C/C3CC3)nc3ccc(I)cc3c2=O)cc1 [BDM19.3]
- 6A7 epitope exposure and activation of BAX (result in words) (BAX in CALU-6 cells): none of the analogs

Molecule: CC1(C)CCC(CN2CCN(c3ccc(C(=O)NS(=O)(=O)c4ccc(NCC5CCOCC5)c([N+](=O)[O-])c4)c(Oc4cnc5[nH]ccc5c4)c3)CC2)=C(c2ccc(Cl)cc2)C1 [ABT-199, Venetoclax]
- caspase-3/7 activity (result in words) [7]: failed to induce caspase-3/7 activity

Molecule: Cc1cccc(/C=C/c2nc3c(c(=O)n2-c2ccc(C(=O)O)cc2)CCCC3)c1 [BDM19.4]
- 6A7 epitope exposure and activation of BAX (result in words) (BAX in CALU-6 cells): none of the analogs

Molecule: human BAX WT in HCT116 BAX KO cells (from UniProt Q07812 1-192) (natural protein)
- stoichiometry N [8]: 2

Molecule: O=C(O)c1ccc(-n2c(/C=C/C3CCCC3)nc3ccc(I)cc3c2=O)cc1 [BDM19.2]
- 6A7 epitope exposure and activation of BAX (result in words) (BAX in CALU-6 cells): none of the analogs
